Measured values from patent US20250108142A1, “METHODS FOR TREATING LEAKAGE FROM A GASTROINTESTINAL SITE” (Ethicon, Inc., priority 2023, published 2025).

Assay: Release of ibuprofen from fibrin clot in an in vitro setting
Format: physicochemical
Description: Release of ibuprofen from fibrin clot in an in vitro setting: A similar procedure was applied for ibuprofen embedded in fibrin sealant and for PLGA-ibuprofen embedded in fibrin sealant. […] This step was repeated 15 times (days). The ibuprofen concentration was measured by its UV signature, that is, UV absorption at 221 nm.

- release profile: less than controlled manner
SMILES: CC(C)Cc1ccc(C(C)C(=O)O)cc1 (stereo not shown) [Ibuprofen, ibuprofen]
